Data from patent EP2581085A1, “Pharmaceutical composition for nasal administration of metopimazine” (priority 2011, dated 2013).
Like-named read-outs stand apart in the source and are kept apart here. Each block holds one molecule with its values, some of them ahead of it.

What was measured:
[1] = Pharmacokinetic study in rabbit after nasal or IV administration (plasma MPZ and AMPZ by HPLC with fluorescence detection); format: in vivo, lapin
Procedure: Le passage par voie nasale de la métopimazine a été caractérisé chez l'animal dans un modèle de référence qu'est le lapin. Les lapins utilisés étaient des femelles de race néozélandaises provenant de chez Charles River (poids 3,5 kg). La formulation testée chez le lapin a été la suivante: • Formule 1 : • Métopimazine : 10mg • NaCl : QSP 300mOsm • Tampon Citrate : QSP pH 5.5 • Eau : QSP 1ml
La posologie administrée au lapin a été calculée à partir de la dose pédiatrique soit 1 mg / kg / jour en 3 prises. Le poids des lapins étant de 3,5 kg, la dose par prise est d'environ 1 mg. La dose est donc administrée par instillation de 50 µl dans chaque narine d'une solution à 10 mg/ml.
Avant toute manipulation, le lapin est placé dans des cages de contention. Un cathéter est introduit sur chaque oreille du lapin au niveau de la veine marginale et d'une artère. Le cathéter veineux a permis d'injecter le soluté de remplissage (sérum physiologique) et le cathéter artériel a servi aux différents prélèvements sanguins tout au long de la manipulation. Les prélèvements ont été réalisés à temps réguliers : 0, 5, 10, 20, 30, 60, 120, 240 et 480 minutes. La préparation est administrée aux lapins en position supinale. Les lapins sont être maintenus dans cette position au moins 5 minutes après administration pour assurer le contact entre l'épithélium et la formulation. La solution nasale est administrée par instillation d'un volume de 50µL avec une micropipette dans chaque narine du lapin. Le volume du prélèvement est d'environ 3 mL. Après 2 h, les lapins sont placés dans leur cage avec un libre accès à la nourriture et à l'eau dans l'attente des prélèvements suivants. Le dosage est réalisé par CLHP avec détection par fluorescence en utilisant la méthode décrite par Angelo et al. J of Chrom, 496; 472-477, (1989). L'appareil de dosage est constitué d'une pompe Jasco, d'un injecteur Kontron et d'un détecteur de fluorescence Varian Prostar.
L'étude pharmacocinétique a été conduite sur le logiciel PK Solutions 2.
La formule 1 a été comparée à la voie IV. La métopimazine a été administrée dans la veine marginale de l'oreille. Les concentrations plasmatiques de la MPZ et l'AMPZ sont représentées également dans la figure 2.
Selon le même protocole, une autre formulation a été testée. • Formule 2 : • Métopimazine : 10mg • DMβCD : 21mg • NaCl : QSP 300mOsm • Tampon Citrate : QSP pH 5.5 • Eau : QSP 1ml

[2] = Local tolerance study in rabbit, nasal administration for 7 days, histology of the anatomical piece; format: in vivo, lapin; parameters: key: Non renseigné : absent ou négligeable; +: faible intensité; ++: Intensité modérée; +++: Intensité marquée; conditions: 7 days of Formule 1 200µLx3/J
Procedure: La tolérance a été étudiée chez le lapin après administration de 2mg de Formule 1 X3/j pendant 7 jours. Chaque lapin était son propre contrôle, puisqu'une narine recevait le Vogalène pendant que la seconde recevait une solution de sérum physiologique. Après l'exposition, les lapins sont sacrifiés afin de récupérer et d'étudier la pièce anatomique.

[3] = hepatic first-pass effect, cited from earlier work
[4] = sampling 14h after last administration, one rabbit and one sample (A-D)
[5] = sampling 70h after last administration, each column = one rabbit and one sample (A-C)
[6] = MPZ in plasma after IV administration of métopimazine, lapin, n=2

- t max ([1]; in vivo): 10 min
- AUC ([1]; in vivo, iv): 5765 ng/mL/min
- C max ([1]; in vivo, iv): 40 ng/mL
- T1/2 ([1]; in vivo, iv): 105 min
- t max ([1]; in vivo, iv): 20 min
SMILES: CS(=O)(=O)c1ccc2c(c1)N(CCCN1CCC(C(=O)O)CC1)c1ccccc1S2 [AMPZ, acide de métopimazine]

- t max ([1]; MPZ in plasma after IV administration of métopimazine (veine marginale de l'oreille), lapin, n=2, read-out: t max (converted)): 5 min
- Cmax [1, 6]: 17.4 ng/mL
- half-life [1, 6]: 72 min
- AUC ([1]; MPZ in plasma after IV administration of métopimazine, lapin, n=2, read-out: AUC (converted)): 23.4 ng·h/mL
- t max ([1]; MPZ in plasma after nasal administration, 50 µl in each nostril of a 10 mg/ml solution (about 1 mg), lapin, n=2, read-out: t max (converted)): 5 min
- Cmax ([1]; MPZ in plasma after nasal administration, about 1 mg, lapin, n=2): 9.2 ng/mL
- bioavailability ([1]; plasma, 1 mg, lapin, nasal route compared with IV, b45 = formulation tested (Formule 1), b50 = Formule 2, read-out: biodisponibilité de la MPZ par voie nasale): ~50%
SMILES: CS(=O)(=O)c1ccc2c(c1)N(CCCN1CCC(C(N)=O)CC1)c1ccccc1S2 [MPZ, métopimazine]
- Hyperplasie des cellules de réserve [2, 4]: +
- Inflammation dans le chorion [2, 4]: +
- Perte des cellules caliciformes [2, 4]: +
- Hyperplasie des cellules de réserve [2, 5]: + and ++
- Inflammation épithéliale [2, 5]: + and + avec eosinophiles et lymphocytes
- Perte des cellules caliciformes [2, 5]: +++ and + and ++
- Perte des cils [2, 5]: +++ and + and ++
- biodisponibilité par voie orale ([3]; oral route): 22,3%
- biodisponibilité par voie rectale ([3]; rectal route): 19,5%
